Test results: patent US20050209157A1, “Short bioactive peptides and methods for their use” (priority 2001, published 2005)
Read-outs that look alike come from different tables or passages of the source. No end group written: not given here.

Key:
MCF7 = assay: Anti-cancer assay, MTT, LD50; assay type: cell-based; details: for MCF7 LD50: Table 41, lower part; for LD50 MCF7: MCF7 breast adenocarcinoma line, MTT, 24 hours with peptide
Excerpt: (§1) Numbers are LD50 values (μg/mL).

[1] = Leukocyte (WBC) inhibition, toxicity LD50; assay type: cell-based, human; details: male, human, human leukocytes (buffy coat cells, mostly PBMCs); Table 41, lower part
Description: In vitro viability of human leukocyte cells in the presence of different peptides at different concentrations was determined by an Alamar Blue protocol. Alamar Blue (Promega, Madison, Wis.) is an indicator dye, formulated to measure quantitatively the proliferation and cytotoxicity of the cells. The dye consists of an oxidation-reduction (redox) indicator that yields a calorimetric change and a fluorescent signal in response to cellular metabolic activity.
Assay protocol: Blood from a human was drawn and centrifuged at 1500 rpm for 15 minutes at room temperature. The buffy coat cells at the plasma-red blood cell interface were aspirated. Buffy coat cells (mainly lymphocyte cells) were then transferred into 15 ml centrifuge tubes containing 5 ml of RPMI-1640 medium+10% Fetal Bovine Serum (Gibco, Grand Island, N.Y.). Additional medium was added to the tubes to bring the volume up to 10 ml. The buffy coat suspension was then carefully layered on 5 ml of Histopaque (Sigma Chemical Co., St. Louis, Mo.) and centrifuged at 1500 rpm for 30 minutes at room temperature. The interface which is mostly PBMCs (peripheral mononuclear cells) was aspirated and transferred to a 15 ml conical centrifuge tube and, resuspended in 2 ml cold RPMI-1640 and brought up to 15 ml with cold RPMI-1640 medium. Cells were centrifuged at 1500 rpm for 10 minutes. The supernatant was then aspirated and discarded. The cell pellet was re-suspended in 1 ml of cold RPMI 1640 and brought up to 15 ml with RPMI medium. This step was repeated twice, except that in the last step, the cells were resuspended with 1 ml of cold RPMI-1640 medium and cell counts were performed with a hemocytometer according to the Sigma cell culture catalogue.
Pokewood mitogen was used as a control along with positive and negative controls. Negative control cells were killed with 70% methanol. Positive (+) control cells were incubated in RPMI medium (untreated). […] of AlamarBlue was added to the cells, and readings were taken after 24 hours, 48 hours, 72 hours, and 96 hours using a fluorimeter (excitation 544/transmission 590 nm).
In choosing a peptide for possible treatment of a given indication it is important to match the therapeutic activity and specificity of the peptide with its possible toxic properties.
The protocols for WBC and WI38 stimulation have been discussed above. The RBC protocol follows Table 24.

in vitro [2] = details: human, WI38 normal lung fibroblast cells
in vitro [3] = assay type: cell-based, human; details: human, human red blood cells
[4] = test system: MCF7 line of breast cancer cells; details: for MCF7 LD50: agent alone; for Active agent LD50 on MCF7 cells: Total conc.: peptide plus tamoxifen concentration at LD50; for Active agent LD50 on MCF7 cells: Peptide conc.: peptide with tamoxifen, peptide concentration at LD50; for Active agent LD50 on MCF7 cells: Tamox. conc.: tamoxifen concentration at LD50 (peptide with tamoxifen; tamoxifen alone in its own line)
[5] = Solubility of peptides in sheep serum; assay type: physicochemical
P. aeruginosa H374 = assay type: cell-based, Pseudomonas aeruginosa; details: for MIC Cm-comb.: MIC of chloramphenicol with peptide at ¼ MIC; for MIC Nal-comb.: MIC of nalidixic acid with peptide at ¼ MIC; for FIC Index: 0.5 or less = synergy
Outline: (§2)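 Efflux-mutant strains were tested with two-fold serial dilutions of chloramphenicol or nalidixic acid, alone and with peptide held at ¼ of its own MIC.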

Pseudomonas aeruginosa = assay: Serum inactivation of peptides, serum MIC; assay type: cell-based; details: for MIC 30 min treatment: sheep serum 37° C. 30 minutes; for MIC 2 hr treatment: sheep serum 37° C. 2 hours
Description: Subsequently, the serum MICs against Pseudomonas aeruginosa were conducted to determine extent of serum inactivation of the peptides.

HeLaS3 = assay: Anti-cancer assay, MTT, LD50; assay type: cell-based; details: 24 hours with peptide, cervical carcinoma
Excerpt: as §1

SW480 = assay: Anti-cancer assay, MTT, LD50; assay type: cell-based; details: SW480 colon adenocarcinoma line, 24 hours with peptide
Excerpt: as §1

PC3 = assay: Anti-cancer assay, MTT, LD50; assay type: cell-based; details: 24 hours with peptide, prostate adenocarcinoma
Excerpt: as §1

BMKC = assay: Anti-cancer assay, MTT, LD50; assay type: cell-based; details: BMKC cloned melanoma line, 24 hours with peptide
Excerpt: as §1

H1299 = assay: Anti-cancer assay, MTT, LD50; assay type: cell-based; details: 24 hours with peptide, lung large cell carcinoma
Excerpt: as §1

[6] = test system: yeast (Saccharomyces cerevisiae); assay: Antimicrobial assay I, yeast assay in RPMI 1640; assay type: cell-based; details: RPMI 1640 media
WI38 = details: MTT, 24 hours with peptide; normal fibroblast line
P. aeruginosa H774 = assay type: cell-based, Pseudomonas aeruginosa; details: P. aeruginosa H744; nalidixic acid + peptide at ¼ MIC; 0.5 or less = synergy
Outline: as §2

P. aeruginosa = assay type: cell-based, Pseudomonas aeruginosa; details: P. aeruginosa H744; MIC of nalidixic acid with peptide at ¼ MIC
Outline: as §2

[7] = test system: Pseudomonas aeruginosa ATCC 9027; assay: Antimicrobial assay I, MIC by OD measurement; assay type: cell-based; details: 37° C. for 24 hours, absorbance 620 nm
[8] = test system: Staphylococcus aureus ATCC 6538; assay: Antimicrobial assay I, MIC by OD measurement; assay type: cell-based; details: 37° C. for 24 hours, absorbance 620 nm
[9] = Synergy of Shiva-1 and lysozyme, percent viability; assay type: cell-based, Staphylococcus aureus; details: S. aureus
Description: (§3) The percent viability of gram positive S. intermedius 19930, S. intermedius 20034, and S. aureus was determined relative to blank controls.

[10] = Synergy of Shiva-1 and lysozyme, percent viability; assay type: cell-based, Staphylococcus intermedius
Description: as §3

[11] = Synergy of Shiva-1 and lysozyme, percent viability; assay type: cell-based, Pseudomonas aeruginosa; details: Pseudomonas aeruginosa
Description: The percent viability of Pseudomonas aeruginosa was determined relative to blank controls.

[12] = WI38 LD50, Table 41, lower part
[13] = pH 7, Table 41, lower part, read-out: RBC LD50
[14] = pH 7, hemolytic assay, concentration at 50% hemolysis, 1 hour at 37° C., read-out: LD50
[15] = chloramphenicol + peptide at ¼ MIC
[16] = nalidixic acid + peptide at ¼ MIC, FIC=0.25+MIC comb/MIC alone
[17] = LD50 WI38, WI38 normal lung fibroblast line, MTT, 24 hours with peptide

WALAL-NH2 [145 (184)]
MCF7 LD50 (MCF7): 240 µg/mL
CC50 [1]: 410 µg/mL
CC50 at 24 h (in vitro [2]; [12]): 1000 µg/mL
HC50 at 1 h (in vitro [3]; [13]): 850 µg/mL
MCF7 LD50 [4]: 240 µg/mL
Active agent LD50 on MCF7 cells: Total conc. [4]: 14 µg/mL
Active agent LD50 on MCF7 cells: Peptide conc. [4]: 10 µg/mL
Active agent LD50 on MCF7 cells: Tamox. conc. [4]: 4 µg/mL

VALALKALKKALKKLKKALKKAL-OH [P508]
Solubility ([5]; sheep serum, […], 70% serum): Soluble
Solubility ([5]; sheep, 70% sheep serum): ≥ 1280 µg/mL
HC50 at 1 h (in vitro [3]; [14]): 70 µg/mL
MIC Cm-comb. (P. aeruginosa H374): 8 µg/mL
MIC Nal-comb. (P. aeruginosa H374): 5000 µg/mL
FIC Index (P. aeruginosa H374; [15]): 0.75
FIC Index (P. aeruginosa H374; [16]): 1.25
MIC 30 min treatment (Pseudomonas aeruginosa; first of two columns): 40 µg/mL
MIC 30 min treatment (Pseudomonas aeruginosa; second of two columns): 20 µg/mL
MIC 2 hr treatment (Pseudomonas aeruginosa; first of two columns): 40 µg/mL
MIC 2 hr treatment (Pseudomonas aeruginosa; second of two columns): 20 µg/mL
change of activity by exposure to serum (serum MIC against Pseudomonas aeruginosa) (Pseudomonas aeruginosa; sheep serum, […], 37° C. for 30 minutes or 2 hours): only modestly decreased

FALALKALKKAL-NH2 [106 (144)]
MCF7 LD50 (MCF7): 310 µg/mL
CC50 [1]: 320 µg/mL
CC50 at 24 h (in vitro [2]; [12]): 740 µg/mL
HC50 at 1 h (in vitro [3]; [13]): 600 µg/mL
MCF7 LD50 [4]: 310 µg/mL
Active agent LD50 on MCF7 cells: Total conc. [4]: 42.7 µg/mL
Active agent LD50 on MCF7 cells: Peptide conc. [4]: 35 µg/mL
Active agent LD50 on MCF7 cells: Tamox. conc. [4]: 7.7 µg/mL

KWKLFKKKTKLFKKFAKKLAKKL-OH [P81]
HeLaS3 LD50 (HeLaS3): 19 µg/mL
LD50 SW480 (SW480): 13 µg/mL
PC3 LD50 (PC3): 170 µg/mL
LD50 BMKC (BMKC): 12 µg/mL
H1299 LD50 (H1299): 22 µg/mL
LD50 MCF7 (MCF7): 63 µg/mL
yeast (MIC or MFC) [6]: > (> indicates greater than 200 μg/mL)
Solubility ([5]; sheep serum, […], 70% serum): Precipitated
CC50 at 24 h (in vitro [2]; [17]): 8 µg/mL
HC50 at 1 h (in vitro [3]; [14]): 8 µg/mL
WI38 LD50 (WI38): 8 µg/mL
MIC Cm-comb. (P. aeruginosa H374): 16 µg/mL
MIC Nal-comb. (P. aeruginosa H374): 5000 µg/mL
FIC Index (P. aeruginosa H374; [15]): 1.25
FIC Index (P. aeruginosa H374; [16]): 1.25
FIC Index (P. aeruginosa H774): 1.25
MIC Nal-comb. (P. aeruginosa): 624 µg/mL
paerug9027 (MIC) [7]: > (> indicates greater than 200 μg/mL)
staph6538 (MIC) [8]: 10 µg/mL
MIC 30 min treatment (Pseudomonas aeruginosa; first of two columns): 20 µg/mL
MIC 30 min treatment (Pseudomonas aeruginosa; second of two columns): 20 µg/mL
MIC 2 hr treatment (Pseudomonas aeruginosa; first of two columns): 20 µg/mL
MIC 2 hr treatment (Pseudomonas aeruginosa; second of two columns): 20 µg/mL

FAKKLAKKLKKLAKKLAK-NH2 [P69]
Solubility ([5]; sheep serum, […], 70% serum): Precipitated
MIC Cm-comb. (P. aeruginosa H374): 8 µg/mL
MIC Nal-comb. (P. aeruginosa H374): 2500 µg/mL
FIC Index (P. aeruginosa H374; [15]): 0.75
FIC Index (P. aeruginosa H374; [16]): 0.75
FIC Index (P. aeruginosa H774): 0.75
MIC Nal-comb. (P. aeruginosa): 312 µg/mL
MIC 30 min treatment (Pseudomonas aeruginosa; first of two columns): 20 µg/mL
MIC 30 min treatment (Pseudomonas aeruginosa; second of two columns): 20 µg/mL
MIC 2 hr treatment (Pseudomonas aeruginosa; first of two columns): 20 µg/mL
MIC 2 hr treatment (Pseudomonas aeruginosa; second of two columns): 20 µg/mL

FALALKALKKLLKKLKKLAKKAL-NH2 [P24]
HeLaS3 LD50 (HeLaS3): 145 µg/mL
LD50 SW480 (SW480): 38 µg/mL
PC3 LD50 (PC3): 38 µg/mL
LD50 BMKC (BMKC): 85 µg/mL
H1299 LD50 (H1299): 72 µg/mL
LD50 MCF7 (MCF7): 26 µg/mL
Solubility ([5]; sheep serum, […], 70% serum): Precipitated
CC50 at 24 h (in vitro [2]; [17]): 55 µg/mL
HC50 at 1 h (in vitro [3]; [14]): 10 µg/mL
WI38 LD50 (WI38): 55 µg/mL
MIC Cm-comb. (P. aeruginosa H374): 16 µg/mL
MIC Nal-comb. (P. aeruginosa H374): 5000 µg/mL
FIC Index (P. aeruginosa H374; [15]): 1.25
FIC Index (P. aeruginosa H374; [16]): 1.25
FIC Index (P. aeruginosa H774): 1.25
MIC Nal-comb. (P. aeruginosa): 624 µg/mL
MIC 30 min treatment (Pseudomonas aeruginosa; first of two columns): 40 µg/mL
MIC 30 min treatment (Pseudomonas aeruginosa; second of two columns): 20 µg/mL
MIC 2 hr treatment (Pseudomonas aeruginosa; first of two columns): 20 µg/mL
MIC 2 hr treatment (Pseudomonas aeruginosa; second of two columns): 20 µg/mL

MPRWRLFRRIDRVGKQIKQGILRAGPAIALVGDARAVG [Shiva-1]
viability at 0.01 µM [9]: 100%
viability at 0.1 µM [9]: 100%
viability at 0.5 µM [9]: 50.1%
viability at 1 µM [9]: 24.4%
viability at 5 µM [9]: 15.9%
viability at 10 µM [9]: 4.5%
viability at 50 µM [9]: 1.6%
viability at 0.01 µM ([10]; S. intermedius 19930): 100%
viability at 0.1 µM ([10]; S. intermedius 19930): 81.8%
viability at 0.5 µM ([10]; S. intermedius 19930): 65%
viability at 1 µM ([10]; S. intermedius 19930): 42.1%
viability at 5 µM ([10]; S. intermedius 19930): 35.2%
viability at 10 µM ([10]; S. intermedius 19930): 1.2%
viability at 50 µM ([10]; S. intermedius 19930): 0%
viability at 0.01 µM ([10]; S. intermedius 20034): 100%
viability at 0.5 µM ([10]; S. intermedius 20034): 80%
viability at 5 µM ([10]; S. intermedius 20034): 4.1%
viability at 50 µM ([10]; S. intermedius 20034): 0%
viability at 0.01 µM [11]: 100%
viability at 0.1 µM [11]: 69.6%
viability at 1 µM [11]: 37.9%
viability at 5 µM [11]: 1.5%
viability at 25 µM [11]: 0%
